Patent US20220089575A1, “FARNESOID X RECEPTOR AGONISTS AND USES THEREOF” (Metacrine, Inc., priority 2017, published 2022)

target: T1, hFXR (Homo sapiens, UniProt Q96RI1); assay: In Vitro FXR Assay (TK): TK-ECRE-luc reporter in transfected CV-1 cells; assay type: cell-based; conditions: 18 hrs, luminescence, maximum efficacy of <25% of the Fexarmine control classified as '+'
T1 construct: expressed in transfected cells; host or cells: CV-1 cells
T1 sequence (Q96RI1 1-486): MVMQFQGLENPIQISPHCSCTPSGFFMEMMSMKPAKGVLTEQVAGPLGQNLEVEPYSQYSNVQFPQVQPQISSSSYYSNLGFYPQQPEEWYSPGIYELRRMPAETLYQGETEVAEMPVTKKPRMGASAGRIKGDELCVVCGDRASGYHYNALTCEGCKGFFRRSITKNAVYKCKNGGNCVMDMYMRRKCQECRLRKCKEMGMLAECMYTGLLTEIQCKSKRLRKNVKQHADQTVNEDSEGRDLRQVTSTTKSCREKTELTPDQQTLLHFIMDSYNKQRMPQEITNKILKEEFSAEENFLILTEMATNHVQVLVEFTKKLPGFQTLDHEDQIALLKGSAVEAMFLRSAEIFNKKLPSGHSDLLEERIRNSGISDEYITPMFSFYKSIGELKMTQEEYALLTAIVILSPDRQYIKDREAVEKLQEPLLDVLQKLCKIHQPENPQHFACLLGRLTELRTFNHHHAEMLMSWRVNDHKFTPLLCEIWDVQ
T1 sequence (P19793 1-462 partner): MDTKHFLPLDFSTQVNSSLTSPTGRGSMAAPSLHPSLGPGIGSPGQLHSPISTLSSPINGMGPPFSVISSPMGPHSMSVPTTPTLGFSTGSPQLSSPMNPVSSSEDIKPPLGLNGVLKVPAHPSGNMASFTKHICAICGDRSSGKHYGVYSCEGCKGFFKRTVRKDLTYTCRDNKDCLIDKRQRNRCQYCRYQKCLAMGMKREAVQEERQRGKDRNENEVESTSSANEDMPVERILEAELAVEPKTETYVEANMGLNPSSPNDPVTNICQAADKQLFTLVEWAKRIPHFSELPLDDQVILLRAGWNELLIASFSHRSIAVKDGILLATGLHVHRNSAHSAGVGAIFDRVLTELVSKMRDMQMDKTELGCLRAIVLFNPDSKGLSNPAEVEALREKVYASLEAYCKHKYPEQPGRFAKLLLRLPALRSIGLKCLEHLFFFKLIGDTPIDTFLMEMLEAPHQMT
How it was run: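 CV-1, transient co-transfection: hFXR + hRXR + TK-ECRE-luc + pCMX-YFP; charcoal-stripped serum. 18 h post-transfection, DMSO serial dilutions of cpd added; 18 h incubation; lysis, luminescence.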

Row | Compound | EC50
1 | CNC(=O)O[C@H]1CC[C@H](C(=O)N(C[C@H]2CC[C@H](c3ccc(OC)c(C#N)n3)CC2)c2cc(-c3cnc(C4CC4)s3)ccn2)CC1 [Compound 5.07, trans-4-(((trans-4-(6-Cyano-5-methoxypyridin-2-yl)cyclohexyl)methyl)(4-(2-cyclopropylthiazol-5-yl)pyridin-2-yl)carbamoyl)cyclohexyl methylcarbamate] | ≤ 250 nM
2 | COc1ccc([C@H]2CC[C@H](CN(c3cccc(-c4cnn(C5CC5)c4)c3)C(=O)[C@H]3CC[C@H](c4nnn[nH]4)CC3)CC2)cc1C [Compound 33.01, trans-N-(3-(1-Cyclopropyl-1H-pyrazol-4-yl)phenyl)-N-((trans-4-(4-methoxy-3-methylphenyl)cyclohexyl)methyl)-4-(2H-tetrazol-5-yl) cyclohexanecarboxamide] | ≤ 250 nM
3 | COc1ccc([C@H]2CC[C@H](CN(c3cccc(-c4coc(C5CC5)n4)c3)C(=O)[C@H]3CC[C@H](CC(=O)O)CC3)CC2)nc1C [Compound 21.03, 2-(trans-4-((3-(2-Cyclopropyloxazol-4-yl)phenyl)((trans-4-(5-methoxy-6-methylpyridin-2-yl)cyclohexyl)methyl)carbamoyl)cyclohexyl) acetic acid] | ≤ 250 nM
4 | COc1ccc([C@H]2CC[C@H](CN(c3cc(-c4coc(C5CC5)n4)ccn3)C(=O)[C@H]3CC[C@H](OC(=O)NCC(C)(C)O)CC3)CC2)nc1C [Compound 6.70, trans-4-((4-(2-Cyclopropyloxazol-4-yl)pyridin-2-yl)((trans-4-(5-methoxy-6-methylpyridin-2-yl)cyclohexyl)methyl)carbamoyl)cyclohexyl (2-hydroxy-2-methylpropyl)carbamate] | ≤ 250 nM
5 | COc1ccc([C@H]2CC[C@H](CN(c3cc(-c4coc(C5CC5)n4)ccn3)C(=O)[C@H]3CC[C@H](OC(=O)N4CC(S(C)(=O)=O)C4)CC3)CC2)nc1C [Compound 6.61] | ≤ 250 nM
6 | COc1ccc([C@H]2CC[C@H](CN(c3cccc(-c4cnn(C5CC5)c4)c3)C(=O)[C@H]3CC[C@H](OC(=O)N4CC(CO)C4)CC3)CC2)cc1C [Compound 7.28, trans-4-((3-(1-Cyclopropyl-1H-pyrazol-4-yl)phenyl)((trans-4-(4-methoxy-3-methylphenyl)cyclohexyl)methyl)carbamoyl)cyclohexyl 3-(hydroxymethyl)azetidine-1-carboxylate] | ≤ 250 nM
7 | COc1ccc([C@H]2CC[C@H](CN(c3cc(-c4coc(C(C)C)n4)ccn3)C(=O)[C@H]3CC[C@H](OC(=O)N4CC(O)C4)CC3)CC2)cc1C#N [Compound 7.73, trans-4-(((trans-4-(3-Cyano-4-methoxyphenyl)cyclohexyl)methyl)(4-(2-isopropyloxazol-4-yl)pyridine-2-yl)carbamoyl)cyclohexyl 3-hydroxyazetidine-1-carboxylate] | ≤ 250 nM
8 | CNC(=O)O[C@H]1CC[C@H](C(=O)N(C[C@H]2CC[C@H](c3ccc(OC)c(C)n3)CC2)c2cccc(-c3cnc(C4CC4)s3)c2)CC1 [Compound 2.02, trans-4-((3-(2-Cyclopropylthiazol-5-yl)phenyl)((trans-4-(5-methoxy-6-methylpyridin-2-yl)cyclohexyl)methyl)carbamoyl)cyclohexyl methylcarbamate] | ≤ 250 nM
9 | COc1ccc([C@H]2CC[C@H](CN(c3cc(-c4coc(C(C)C)n4)ccn3)C(=O)[C@H]3CC[C@H](OC(=O)N4CC(OC)C4)CC3)CC2)nc1C [Compound 7.82, trans-4-((4-(2-Isopropyloxazol-4-yl)pyridine-2-yl)((trans-4-(5-methoxy-6-methylpyridin-2-yl)cyclohexyl)methyl)carbamoyl)cyclohexyl 3-methoxyazetidine-1-carboxylate] | ≤ 250 nM
10 | COc1ccc([C@H]2CC[C@H](CN(c3cccc(-c4cnn(C5CC5)c4)c3)C(=O)[C@H]3CC[C@H](c4noc(=O)[nH]4)CC3)CC2)cc1C [Compound 34, trans-N-(3-(1-Cyclopropyl-1H-pyrazol-4-yl)phenyl)-N-((trans-4-(4-methoxy-3-methylphenyl)cyclohexyl)methyl)-4-(5-oxo-4,5-dihydro-1,2,4-oxadiazol-3-yl)cyclohexanecarboxamide] | ≤ 250 nM
11 | COc1ncc([C@H]2CC[C@H](CN(c3cccc(-c4cnn(C5CC5)c4)c3)C(=O)[C@H]3CC[C@H](OC(=O)NCCO)CC3)CC2)cc1Cl [Compound 6.23, trans-4-(((trans-4-(5-Chloro-6-methoxypyridin-3-yl)cyclohexyl)methyl) (3-(1-cyclopropyl-1H-pyrazol-4-yl)phenyl)carbamoyl)cyclohexyl (2-hydroxyethyl)carbamate] | ≤ 250 nM
12 | COc1ccc([C@H]2CC[C@H](CN(c3cc(-c4coc(C5CC5)n4)ccn3)C(=O)[C@H]3CC[C@H](OC(=O)NCC(C)O)CC3)CC2)nc1C (stereo partly drawn) [Compound 6.72, trans-4-((4-(2-Cyclopropyloxazol-4-yl)pyridin-2-yl)((trans-4-(5-methoxy-6-methylpyridin-2-yl)cyclohexyl)methyl)carbamoyl)cyclohexyl (2-hydroxypropyl)carbamate] | ≤ 250 nM
13 | COc1ccc([C@H]2CC[C@H](CN(c3cccc(-c4cnn(C5CC5)c4)c3)C(=O)[C@H]3CC[C@H](C(=O)O)CC3)CC2)cc1Cl [Compound 17.15, trans-4-(((trans-4-(3-Chloro-4-methoxyphenyl)cyclohexyl)methyl)(3-(1-cyclopropyl-1H-pyrazol-4-yl)phenyl)carbamoyl) cyclohexanecarboxylic acid] | ≤ 250 nM
14 | CNC(=O)O[C@H]1CC[C@H](C(=O)N(C[C@H]2CC[C@H](c3ccc(OC)c(C)n3)CC2)c2cccc(-c3cnn(C(C)(C)C)c3)c2)CC1 [Compound 5.20, trans-4-((3-(1-(tert-Butyl)-1H-pyrazol-4-yl)phenyl)((trans-4-(5-methoxy-6-methylpyridin-2-yl)cyclohexyl)methyl)carbamoyl)cyclohexyl methylcarbamate] | ≤ 250 nM
15 | COc1ccc([C@H]2CC[C@H](CN(c3cccc(-c4cnn(C5CC5)c4)c3)C(=O)[C@H]3CC[C@H](OC(=O)N4CC(S(C)(=O)=O)C4)CC3)CC2)cc1C [Compound 6.29, trans-4-((3-(1-Cyclopropyl-1H-pyrazol-4-yl)phenyl)((trans-4-(4-methoxy-3-methylphenyl)cyclohexyl)methyl)carbamoyl)cyclohexyl 3-(methylsulfonyl)azetidine-1-carboxylate] | ≤ 250 nM
16 | COc1ccc([C@H]2CC[C@H](CN(c3cccc(-c4cnc(C5CC5)s4)c3)C(=O)[C@H]3CC[C@H](C(=O)O)CC3)CC2)nc1C [Compound 17.08, trans-4-((3-(2-Cyclopropylthiazol-5-yl)phenyl)((trans-4-(5-methoxy-6-methylpyridin-2-yl)cyclohexyl)methyl)carbamoyl) cyclohexanecarboxylic acid] | ≤ 250 nM
17 | COc1ccc([C@H]2CC[C@H](CN(c3cccc(-c4cnn(C(C)C)c4)c3)C(=O)[C@H]3CC[C@H](OC(=O)N4CC(O)C4)CC3)CC2)nc1C [Compound 7.15, trans-4-((3-(1-Isopropyl-1H-pyrazol-4-yl)phenyl)((trans-4-(5-methoxy-6-methylpyridin-2-yl)cyclohexyl)methyl)carbamoyl)cyclohexyl 3-hydroxyazetidine-1-carboxylate] | ≤ 250 nM
18 | COc1ccc([C@H]2CC[C@H](CN(c3cccc(-c4cnn(C5CC5)c4)c3)C(=O)[C@H]3CC[C@H](C(=O)OCC(C)C)CC3)CC2)cc1C [Compound 22.04, trans-Isobutyl 4-((3-(1-cyclopropyl-1H-pyrazol-4-yl)phenyl)((trans-4-(4-methoxy-3-methylphenyl)cyclohexyl)methyl)carbamoyl) cyclohexanecarboxylate] | ≤ 250 nM
19 | COc1ccc(C23CCC(CN(c4cccc(-c5cnn(C6CC6)c5)c4)C(=O)[C@H]4CC[C@H](NC(=O)CO)CC4)(CC2)CC3)cc1C [Compound 26.09, trans-N-(3-(1-Cyclopropyl-1H-pyrazol-4-yl)phenyl)-4-(2-hydroxyacetamido)-N-((4-(4-methoxy-3-methylphenyl)bicyclo[2.2.2]octan-1-yl)methyl)cyclohexanecarboxamide] | ≤ 250 nM
20 | COc1ccc(C23CCC(CN(c4cccc(-c5cnn(C6CC6)c5)c4)C(=O)[C@H]4CC[C@H](OC(N)=O)CC4)(CC2)CC3)cc1C [Compound 1.08, 4-((3-(1-Cyclopropyl-1H-pyrazol-4-yl)phenyl)((4-(4-methoxy-3-methylphenyl)bicyclo[2.2.2]octan-1-yl)methyl)carbamoyl)cyclohexyl trans-carbamate] | ≤ 250 nM
